From ChEMBL document CHEMBL5321271, “Identification of Novel Quinolin-2(1H)-ones as Phosphodiesterase 1 Inhibitors for the Treatment of Inflammatory Bowel Disease” (J Med Chem, 2023)
Values belong to the molecule of their own block, whether it stands above or below them. Activity calls are given as the source filed them. The rule behind the calls is not given here.

Experiments:
[1] = biological target: Dual specificity calcium/calmodulin-dependent 3',5'-cyclic nucleotide phosphodiesterase 1C (Homo sapiens, UniProt Q14123); test: Inhibition of PDE1C (147 to 531 residues) (unknown origin) using 3H-cGMP as substrate incubated for 15 mins by liquid scintillation counter analysis
[2] = biological target: High affinity cGMP-specific 3',5'-cyclic phosphodiesterase 9A (Homo sapiens, UniProt O76083); test: Inhibition of PDE9A (181 to 506 residues) (unknown origin) using 3H-cGMP as substrate incubated for 15 mins by liquid scintillation counter analysis
[3] = biological target: High affinity cAMP-specific and IBMX-insensitive 3',5'-cyclic phosphodiesterase 8A (Homo sapiens, UniProt O60658); test: Inhibition of PDE8A (480 to 820 residues) (unknown origin) using 3H-cAMP as substrate incubated for 15 mins by liquid scintillation counter analysis
[4] = biological target: cGMP-inhibited 3',5'-cyclic phosphodiesterase 3A (Homo sapiens, UniProt Q14432); test: Inhibition of PDE3A (679 to 1087 residues) (unknown origin) using 3H-cAMP as substrate incubated for 15 mins by liquid scintillation counter analysis
[5] = biological target: cGMP-specific 3',5'-cyclic phosphodiesterase (Homo sapiens, UniProt O76074); test: Inhibition of PDE5A1 (535 to 860 residues) (unknown origin) using 3H-cGMP as substrate incubated for 15 mins by liquid scintillation counter analysis
Mus musculus [6] = test: Anti-inflammatory bowel disease activity in DSS-induced inflammatory bowel disease C57BL/6 mouse model assessed as reduction in histological inflammation in colon at 5 mg/kg,ip BID for 7 days by Hematoxylin and eosin staining based microscopy; type: functional, organism-based; conditions: time 7.0 day
[7] = Metabolic stability in rat liver microsomes assessed as half life
RAW264.7 [8] = test: Anti-inflammatory activity in mouse RAW264.7 cells assessed as reduction in LPS-induced NO release at 5 to 10 uM incubated for 24 hrs by Griess method; type: functional, cell-based; conditions: dose 5-10 µM
Mus musculus [9] = test: Anti-inflammatory bowel disease activity in DSS-induced inflammatory bowel disease C57BL/6 mouse model assessed as increase in colon length at 5 mg/kg,ip BID for 7 days by vernier calipers analysis; type: functional, organism-based; conditions: time 7.0 day
RAW264.7 [10] = test: Anti-inflammatory activity in mouse RAW264.7 cells assessed as reduction in LPS-induced IL-6 mRNA expression at 5 to 10 uM incubated for 24 hrs by qPCR analysis; type: functional, cell-based; conditions: dose 5-10 µM
Mus musculus [11] = test: Anti-inflammatory bowel disease activity in DSS-induced inflammatory bowel disease C57BL/6 mouse model assessed as protection of colon crypt structures at 5 mg/kg,ip BID for 7 days by Hematoxylin and eosin staining based microscopy; type: functional, organism-based; conditions: time 7.0 day
[12] = biological target: 3',5'-cyclic-AMP phosphodiesterase 4D (Homo sapiens, UniProt Q08499); test: Inhibition of PDE4D (86 to 413 residues) (unknown origin) using 3H-cAMP as substrate incubated for 15 mins by liquid scintillation counter analysis
Mus musculus [13] = test: Anti-inflammatory bowel disease activity in DSS-induced inflammatory bowel disease C57BL/6 mouse model assessed as decrease in diarrhoea by measuring disease activity index score at 5 mg/kg,ip BID for 7 days; type: functional, organism-based; conditions: time 7.0 day
RAW264.7 [14] = test: Anti-inflammatory activity in mouse RAW264.7 cells assessed as reduction in LPS-induced TNF-alpha mRNA expression at 5 to 10 uM incubated for 24 hrs by qPCR analysis; type: functional, cell-based; conditions: dose 5-10 µM
RAW264.7 [15] = test: Anti-inflammatory activity in mouse RAW264.7 cells assessed as reduction in LPS-induced IL-1alpha mRNA expression at 5 to 10 uM incubated for 24 hrs by qPCR analysis; type: functional, cell-based; conditions: dose 5-10 µM
Mus musculus [16] = test: Anti-inflammatory bowel disease activity in DSS-induced inflammatory bowel disease C57BL/6 mouse model assessed as decrease in fecal occult blood by measuring disease activity index score at 5 mg/kg,ip BID for 7 days; type: functional, organism-based; conditions: time 7.0 day
Mus musculus [17] = test: Anti-inflammatory bowel disease activity in DSS-induced inflammatory bowel disease C57BL/6 mouse model assessed as decrease in body weight loss by measuring disease activity index score at 5 mg/kg,ip BID for 7 days; type: functional, organism-based; conditions: time 7.0 day
RAW264.7 [18] = test: Anti-inflammatory activity in mouse RAW264.7 cells assessed as reduction in LPS-induced IL-1beta mRNA expression at 5 to 10 uM incubated for 24 hrs by qPCR analysis; type: functional, cell-based; conditions: dose 5-10 µM
[19] = biological target: High affinity 3',5'-cyclic-AMP phosphodiesterase 7A (Homo sapiens, UniProt Q13946); test: Inhibition of PDE7A (130 to 482 residues) (unknown origin) using 3H-cAMP as substrate incubated for 15 mins by liquid scintillation counter analysis
RAW264.7 [20] = test: Anti-inflammatory activity in mouse RAW264.7 cells assessed as reduction in LPS-induced iNOS mRNA expression at 5 to 10 uM incubated for 24 hrs by qPCR analysis; type: functional, cell-based; conditions: dose 5-10 µM
[21] = biological target: cGMP-dependent 3',5'-cyclic phosphodiesterase (Homo sapiens, UniProt O00408); test: Inhibition of PDE2A (580 to 919 residues) (unknown origin) using 3H-cGMP as substrate incubated for 15 mins by liquid scintillation counter analysis
[22] = biological target: cAMP and cAMP-inhibited cGMP 3',5'-cyclic phosphodiesterase 10A (Homo sapiens, UniProt Q9Y233); test: Inhibition of PDE10A (449 to 770 residues) (unknown origin) using 3H-cAMP as substrate incubated for 15 mins by liquid scintillation counter analysis
Mus musculus [23] = test: Anti-inflammatory bowel disease activity in DSS-induced inflammatory bowel disease C57BL/6 mouse model assessed as decrease in body weight loss by measuring disease activity index score at 25 mg/kg,ip BID for 7 days; type: functional, organism-based; conditions: time 7.0 day
Mus musculus [24] = test: Anti-inflammatory bowel disease activity in DSS-induced inflammatory bowel disease C57BL/6 mouse model assessed as increase in colon length at 25 mg/kg,ip BID for 7 days by vernier calipers analysis; type: functional, organism-based; conditions: time 7.0 day
Mus musculus [25] = test: Anti-inflammatory bowel disease activity in DSS-induced inflammatory bowel disease C57BL/6 mouse model assessed as decrease in fecal occult blood by measuring disease activity index score at 25 mg/kg,ip BID for 7 days by Hemo-occult test; type: functional, organism-based; conditions: time 7.0 day
Mus musculus [26] = test: Anti-inflammatory bowel disease activity in DSS-induced inflammatory bowel disease C57BL/6 mouse model assessed as decrease in diarrhoea by measuring disease activity index score at 25 mg/kg,ip BID for 7 days; type: functional, organism-based; conditions: time 7.0 day
[27] = Toxicity in DSS-induced inflammatory bowel disease C57BL/6 mouse model assessed as body weight change at 25 mg/kg,ip BID for 7 days; type: organism-based; conditions: in vivo, 168 h, time 7 day

Sequence of High affinity cGMP-specific 3',5'-cyclic phosphodiesterase 9A (O76083 whole entry, the tested form may be a part): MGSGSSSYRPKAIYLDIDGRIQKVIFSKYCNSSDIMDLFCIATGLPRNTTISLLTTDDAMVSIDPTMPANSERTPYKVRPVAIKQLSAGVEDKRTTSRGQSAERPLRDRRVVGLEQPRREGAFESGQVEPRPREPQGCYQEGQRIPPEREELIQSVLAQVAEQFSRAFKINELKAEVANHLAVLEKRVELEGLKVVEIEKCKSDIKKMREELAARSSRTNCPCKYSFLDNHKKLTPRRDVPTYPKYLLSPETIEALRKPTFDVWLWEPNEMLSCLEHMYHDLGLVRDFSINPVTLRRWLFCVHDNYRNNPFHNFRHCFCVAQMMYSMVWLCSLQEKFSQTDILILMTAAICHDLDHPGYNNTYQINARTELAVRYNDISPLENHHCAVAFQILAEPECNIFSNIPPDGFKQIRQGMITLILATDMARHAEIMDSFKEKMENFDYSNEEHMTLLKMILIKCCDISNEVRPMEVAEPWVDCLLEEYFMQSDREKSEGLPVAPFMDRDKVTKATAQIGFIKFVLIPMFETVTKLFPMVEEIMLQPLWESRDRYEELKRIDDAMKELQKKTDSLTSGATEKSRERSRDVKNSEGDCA
Sequence of Dual specificity calcium/calmodulin-dependent 3',5'-cyclic nucleotide phosphodiesterase 1C (Q14123 whole entry, the tested form may be a part): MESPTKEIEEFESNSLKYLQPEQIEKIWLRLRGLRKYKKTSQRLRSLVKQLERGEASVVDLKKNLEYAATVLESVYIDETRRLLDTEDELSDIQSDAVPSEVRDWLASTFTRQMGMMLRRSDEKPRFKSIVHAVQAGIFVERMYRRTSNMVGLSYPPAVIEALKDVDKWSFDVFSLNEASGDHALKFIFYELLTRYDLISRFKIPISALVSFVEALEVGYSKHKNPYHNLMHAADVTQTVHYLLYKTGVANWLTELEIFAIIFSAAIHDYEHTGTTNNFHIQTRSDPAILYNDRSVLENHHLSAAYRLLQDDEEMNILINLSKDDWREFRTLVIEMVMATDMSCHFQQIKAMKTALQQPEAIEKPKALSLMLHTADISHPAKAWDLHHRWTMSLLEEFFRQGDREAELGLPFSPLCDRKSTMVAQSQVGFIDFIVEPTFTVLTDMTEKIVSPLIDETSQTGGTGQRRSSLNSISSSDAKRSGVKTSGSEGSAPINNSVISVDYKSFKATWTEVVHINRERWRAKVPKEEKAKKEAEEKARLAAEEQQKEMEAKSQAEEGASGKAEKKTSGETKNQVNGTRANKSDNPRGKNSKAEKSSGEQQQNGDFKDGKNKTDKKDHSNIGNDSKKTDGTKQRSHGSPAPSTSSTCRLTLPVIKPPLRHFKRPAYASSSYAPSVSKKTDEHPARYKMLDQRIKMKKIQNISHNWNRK
Sequence of 3',5'-cyclic-AMP phosphodiesterase 4D (Q08499 whole entry, the tested form may be a part): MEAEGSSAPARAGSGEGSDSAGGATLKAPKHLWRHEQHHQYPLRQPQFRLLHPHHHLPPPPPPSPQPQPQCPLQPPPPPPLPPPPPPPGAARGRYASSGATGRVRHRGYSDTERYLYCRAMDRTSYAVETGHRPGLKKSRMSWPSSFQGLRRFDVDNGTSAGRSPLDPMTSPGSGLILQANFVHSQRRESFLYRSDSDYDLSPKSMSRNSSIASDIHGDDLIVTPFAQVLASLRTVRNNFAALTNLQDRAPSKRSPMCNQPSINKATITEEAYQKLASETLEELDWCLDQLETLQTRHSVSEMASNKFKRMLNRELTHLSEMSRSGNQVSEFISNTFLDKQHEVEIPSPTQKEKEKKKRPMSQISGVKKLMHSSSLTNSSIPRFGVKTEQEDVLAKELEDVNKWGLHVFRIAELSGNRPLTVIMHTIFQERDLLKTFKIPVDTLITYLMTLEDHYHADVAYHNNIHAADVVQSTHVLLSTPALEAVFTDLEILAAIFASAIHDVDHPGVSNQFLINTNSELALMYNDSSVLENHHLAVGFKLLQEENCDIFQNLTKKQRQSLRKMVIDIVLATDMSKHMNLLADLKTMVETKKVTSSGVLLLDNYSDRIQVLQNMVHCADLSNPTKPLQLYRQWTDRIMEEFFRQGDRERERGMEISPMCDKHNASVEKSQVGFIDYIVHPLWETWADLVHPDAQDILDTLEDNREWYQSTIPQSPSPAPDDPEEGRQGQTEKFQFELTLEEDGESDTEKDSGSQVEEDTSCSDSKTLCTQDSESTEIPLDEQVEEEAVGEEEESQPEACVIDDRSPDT
Sequence of cGMP-inhibited 3',5'-cyclic phosphodiesterase 3A (Q14432 whole entry, the tested form may be a part): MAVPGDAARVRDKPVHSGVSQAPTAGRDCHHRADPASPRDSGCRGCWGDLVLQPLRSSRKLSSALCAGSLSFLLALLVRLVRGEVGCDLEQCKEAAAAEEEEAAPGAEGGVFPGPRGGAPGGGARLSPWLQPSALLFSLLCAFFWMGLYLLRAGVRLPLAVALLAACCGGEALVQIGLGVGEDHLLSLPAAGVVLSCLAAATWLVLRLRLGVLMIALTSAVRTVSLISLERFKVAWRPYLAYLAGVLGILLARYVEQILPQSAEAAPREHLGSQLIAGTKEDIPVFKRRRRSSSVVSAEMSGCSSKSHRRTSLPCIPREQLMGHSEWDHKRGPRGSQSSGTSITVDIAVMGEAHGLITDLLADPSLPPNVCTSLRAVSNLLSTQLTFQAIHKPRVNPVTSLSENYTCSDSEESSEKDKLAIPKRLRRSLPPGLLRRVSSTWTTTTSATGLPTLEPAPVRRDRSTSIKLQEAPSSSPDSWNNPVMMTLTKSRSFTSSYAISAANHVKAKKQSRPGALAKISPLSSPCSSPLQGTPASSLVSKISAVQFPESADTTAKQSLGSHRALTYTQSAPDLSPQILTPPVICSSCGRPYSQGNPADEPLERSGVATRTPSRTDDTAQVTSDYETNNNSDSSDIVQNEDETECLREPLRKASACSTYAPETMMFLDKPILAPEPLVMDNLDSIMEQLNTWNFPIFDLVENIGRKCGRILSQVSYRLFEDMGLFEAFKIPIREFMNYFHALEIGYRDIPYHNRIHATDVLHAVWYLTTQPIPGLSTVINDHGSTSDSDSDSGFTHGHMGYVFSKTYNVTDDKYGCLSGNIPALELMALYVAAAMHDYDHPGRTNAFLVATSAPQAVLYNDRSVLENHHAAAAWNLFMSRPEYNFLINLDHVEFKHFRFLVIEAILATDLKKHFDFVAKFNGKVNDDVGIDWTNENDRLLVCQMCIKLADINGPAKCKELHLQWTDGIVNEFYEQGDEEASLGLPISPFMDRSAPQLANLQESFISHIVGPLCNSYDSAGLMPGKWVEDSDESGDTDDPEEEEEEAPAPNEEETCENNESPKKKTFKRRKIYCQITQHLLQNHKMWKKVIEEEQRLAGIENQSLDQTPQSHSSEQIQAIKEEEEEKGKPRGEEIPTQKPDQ
Sequence of cAMP and cAMP-inhibited cGMP 3',5'-cyclic phosphodiesterase 10A (Q9Y233 whole entry, the tested form may be a part): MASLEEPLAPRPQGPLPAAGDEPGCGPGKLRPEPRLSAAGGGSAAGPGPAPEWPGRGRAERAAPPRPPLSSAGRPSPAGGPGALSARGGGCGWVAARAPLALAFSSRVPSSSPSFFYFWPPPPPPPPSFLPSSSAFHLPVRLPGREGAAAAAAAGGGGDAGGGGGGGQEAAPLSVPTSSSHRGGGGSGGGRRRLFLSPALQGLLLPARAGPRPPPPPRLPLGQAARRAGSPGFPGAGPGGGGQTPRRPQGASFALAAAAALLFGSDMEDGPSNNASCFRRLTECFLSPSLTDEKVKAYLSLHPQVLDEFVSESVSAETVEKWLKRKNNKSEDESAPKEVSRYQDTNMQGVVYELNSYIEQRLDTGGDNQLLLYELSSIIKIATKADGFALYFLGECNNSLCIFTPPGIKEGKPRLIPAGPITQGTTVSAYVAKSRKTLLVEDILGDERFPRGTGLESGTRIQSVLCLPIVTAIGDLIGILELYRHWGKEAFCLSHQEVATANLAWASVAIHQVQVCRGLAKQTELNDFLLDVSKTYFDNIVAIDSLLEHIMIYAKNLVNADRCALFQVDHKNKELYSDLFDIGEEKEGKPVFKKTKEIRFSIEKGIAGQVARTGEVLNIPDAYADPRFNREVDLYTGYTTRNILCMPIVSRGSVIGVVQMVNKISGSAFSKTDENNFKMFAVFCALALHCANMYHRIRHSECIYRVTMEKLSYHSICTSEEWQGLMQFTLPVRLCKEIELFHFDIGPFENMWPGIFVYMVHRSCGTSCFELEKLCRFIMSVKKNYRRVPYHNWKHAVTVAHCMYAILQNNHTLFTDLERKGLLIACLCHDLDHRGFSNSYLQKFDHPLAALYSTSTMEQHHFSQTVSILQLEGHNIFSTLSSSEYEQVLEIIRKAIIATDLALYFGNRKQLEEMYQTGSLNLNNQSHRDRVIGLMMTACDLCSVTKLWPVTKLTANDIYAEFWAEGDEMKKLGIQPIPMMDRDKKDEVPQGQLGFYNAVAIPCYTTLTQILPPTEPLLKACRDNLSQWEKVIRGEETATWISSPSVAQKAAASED
Sequence of High affinity 3',5'-cyclic-AMP phosphodiesterase 7A (Q13946 whole entry, the tested form may be a part): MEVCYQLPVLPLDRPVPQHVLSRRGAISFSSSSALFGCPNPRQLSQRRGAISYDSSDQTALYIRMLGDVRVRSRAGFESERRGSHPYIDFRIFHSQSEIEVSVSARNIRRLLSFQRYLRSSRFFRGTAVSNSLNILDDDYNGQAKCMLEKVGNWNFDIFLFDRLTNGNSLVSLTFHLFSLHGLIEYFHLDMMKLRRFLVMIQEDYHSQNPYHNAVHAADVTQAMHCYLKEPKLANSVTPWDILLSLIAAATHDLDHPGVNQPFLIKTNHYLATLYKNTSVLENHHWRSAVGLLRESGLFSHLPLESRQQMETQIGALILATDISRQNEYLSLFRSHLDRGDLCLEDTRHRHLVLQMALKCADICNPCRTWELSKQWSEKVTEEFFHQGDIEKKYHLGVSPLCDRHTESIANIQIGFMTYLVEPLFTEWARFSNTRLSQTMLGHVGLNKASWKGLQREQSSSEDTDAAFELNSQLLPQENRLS

Structure (SMILES): CCCCNc1ccc2c(-c3ccc(C)cc3)c(C#N)c(=O)n(Cc3ccccc3)c2c1
- IC50 [1]: > 1000 nM

Structure (SMILES): Cc1ccc(-c2c(C#N)c(=O)[nH]c3ccccc23)cc1
- IC50 [1]: 450 nM
- IC50 [2]: 0.0089 µM

Structure (SMILES): Cc1ccc(-c2c(C#N)c(=O)n(CC3CCCC3)c3cc(NC(C)c4ccccn4)ccc23)cc1 (configuration not stated)
- IC50 [1]: 25 nM

Structure (SMILES): Cc1ccc(-c2c(C#N)c(=O)n(Cc3ccccc3)c3cc(NC(C)c4ccccc4)ccc23)cc1 (configuration not stated)
- IC50 [1]: 55 nM

Structure (SMILES): N#Cc1c(C2CCCC2)c2ccc(NCC3CCOCC3)cc2n(CC2CCCC2)c1=O
- IC50 [1]: > 1000 nM

Structure (SMILES): N#Cc1c(C2CCCC2)c2ccc(NCc3ccc(F)cn3)cc2n(CC2CCCC2)c1=O
- IC50 [3]: > 10 µM
- IC50 [1]: 15 nM
- IC50 [4]: > 10 µM
- IC50 [5]: 2180 nM
- Activity (Mus musculus [6]): Active
- half-life [7]: 1.6 min
- Activity (RAW264.7 [8]): Dose-Dependent Effect
- Activity (Mus musculus [9]): Active
- IC50 [2]: > 10 µM
- Activity (RAW264.7 [10]): Dose-Dependent Effect
- Activity (Mus musculus [11]): Active
- IC50 [12]: 610 nM
- Activity (Mus musculus [13]): Active
- Activity (RAW264.7 [14]): Dose-Dependent Effect
- Activity (RAW264.7 [15]): Dose-Dependent Effect
- Activity (Mus musculus [16]): Active
- Activity (Mus musculus [17]): Active
- Activity (RAW264.7 [18]): Dose-Dependent Effect
- IC50 [19]: 2300 nM
- Activity (RAW264.7 [20]): Dose-Dependent Effect
- IC50 [21]: > 10 µM
- IC50 [22]: 3.03 µM

Structure (SMILES): C[C@@H](Nc1ccc2c(C3CCCC3)c(C#N)c(=O)n(CC3CCCC3)c2c1)c1ccccn1
- IC50 [1]: 38 nM

Structure (SMILES): CC(Nc1ccc2c(C(C)(C)C)c(C#N)c(=O)n(Cc3ccccc3)c2c1)c1ccccn1 (configuration not stated)
- IC50 [1]: 83 nM

Structure (SMILES): CCCCCn1c(=O)c(C#N)c(-c2ccc(C)cc2)c2ccc(NC(C)c3ccccn3)cc21 (configuration not stated)
- IC50 [1]: > 1000 nM

Structure (SMILES): OCCN(CCO)c1nc(N2CCCCC2)c2nc(N(CCO)CCO)nc(N3CCCCC3)c2n1 [DIPYRIDAMOLE]
- Activity (Mus musculus [23]): Active
- Activity (Mus musculus [24]): Active
- Activity (Mus musculus [25]): Active
- Activity (Mus musculus [26]): Active
- Activity [27]: Toxic

Structure (SMILES): Cc1ccc(-c2c(C#N)c(=O)n(Cc3ccccc3)c3c(NC(C)c4ccccn4)cccc23)cc1 (configuration not stated)
- IC50 [1]: > 1000 nM

Structure (SMILES): Cc1ccc(-c2c(C#N)c(=O)n(Cc3ccncc3)c3cc(NC(C)c4ccccn4)ccc23)cc1 (configuration not stated)
- IC50 [1]: > 1000 nM

Structure (SMILES): Cc1ccc(-c2c(C#N)c(=O)n(Cc3ccccc3)c3ccccc23)cc1
- IC50 [1]: 48 nM
- IC50 [2]: 5.83 µM

Structure (SMILES): CC(Nc1ccc2c(C3CC3)c(C#N)c(=O)n(Cc3ccccc3)c2c1)c1ccccn1 (configuration not stated)
- IC50 [1]: 218 nM

More lines, now with the values ahead:

- IC50 [1]: 24 nM
Structure (SMILES): Cc1ccc(-c2c(C#N)c(=O)n(Cc3ccccc3)c3ccc(NC(C)c4ccccn4)cc23)cc1 (configuration not stated)

- IC50 [1]: 16 nM
Structure (SMILES): C[C@H](Nc1ccc2c(C3CCCC3)c(C#N)c(=O)n(CC3CCCC3)c2c1)c1ccccn1

- IC50 [1]: 20 nM
Structure (SMILES): CC(Nc1ccc2c(C3CCCC3)c(C#N)c(=O)n(Cc3ccccc3)c2c1)c1ccccn1 (configuration not stated)

- IC50 [1]: 22 nM
Structure (SMILES): CC(C)c1c(C#N)c(=O)n(Cc2ccccc2)c2cc(NC(C)c3ccccn3)ccc12 (configuration not stated)

- IC50 [1]: 15 nM
Structure (SMILES): Cc1ccc(-c2c(C#N)c(=O)n(Cc3ccccc3)c3cc(NC(C)c4ccccn4)ccc23)cc1 (configuration not stated)

- IC50 [1]: 19 nM
Structure (SMILES): CC(Nc1ccc2c(C3CCCC3)c(C#N)c(=O)n(CC3CCCC3)c2c1)c1ccccn1 (configuration not stated)
